Assay results reported in the supplement of paper PMC10307832.

Tests used:
Test in all cases: relative viability (nuclei count vs DMSO), 5 days (fraction); higher = more cells survive
XMD13-2 = compound: C1CC1C(=O)NC2=NNC3=C2C=CC(=C3)C4=CC(=CC=C4)C(=O)NC5CC5 [XMD13-2]
Method in brief: (§1)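 Acceptance criteria were a control CV below 25% and at least one doubling per plate. Lung cancer cell lines in 1536-well plates got five library-drug doses (not always all listed) √10 apart by pinning and were left 5 days with no medium change. Viability divides treated-well nuclei by vehicle-well nuclei and is the median across plates. Nuclei were counted by MetaXpress from 4× Hoechst images.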

ALW-II-49-7 = compound: Cc1ccc(C(=O)Nc2cccc(C(F)(F)F)c2)cc1Nc1cncc(C(N)=O)c1 [ALW-II-49-7]
Method in brief: as §1

Dasatinib = compound: Cc1nc(Nc2ncc(C(=O)Nc3c(C)cccc3Cl)s2)cc(N2CCN(CCO)CC2)n1 [Dasatinib]
Method in brief: as §1

Cell Line | relative viability (XMD13-2; 0.05 µM) | relative viability (XMD13-2; 0.1581 µM) | relative viability (XMD13-2; 0.5 µM) | relative viability (XMD13-2; 1.581 µM) | relative viability (XMD13-2; 5 µM) | relative viability (ALW-II-49-7; 0.08 µM) | relative viability (ALW-II-49-7; 0.253 µM) | relative viability (ALW-II-49-7; 0.8 µM) | relative viability (ALW-II-49-7; 2.53 µM) | relative viability (ALW-II-49-7; 8 µM) | relative viability (Dasatinib; 0.005 µM) | relative viability (Dasatinib; 0.01581 µM) | relative viability (Dasatinib; 0.05 µM) | relative viability (Dasatinib; 0.075 µM, anchor plate) | relative viability (Dasatinib; 0.1581 µM) | relative viability (Dasatinib; 0.5 µM)
NCI-H2405 | 1.09 | 0.986 | 1.05 | 0.883 | 1.08 | 1.01 | 1.06 | 0.961 | 0.963 | 0.802 | 0.842 | 0.726 | 0.533 | 0.205 | 0.305 | 0.222
A549 | 1.28 | 1.02 | 1.06 | 0.963 | 0.962 | 1.08 | 0.966 | 0.891 | 1.02 | 0.947 | 0.989 | 0.85 | 0.914 |  | 0.626 | 0.346
NCI-H3122 | 1.01 | 1 | 1.03 | 1.01 | 1.01 | 1.05 | 0.868 | 1.06 | 1.05 | 1.07 | 1.02 | 1.04 | 1.06 | 0.766 | 1.01 | 0.87
NCI-H1563 | 1.07 | 1.03 | 1.09 | 0.966 | 1.06 | 0.962 | 0.993 | 0.957 | 0.941 | 0.887 | 0.901 | 0.703 | 0.735 | 0.465 | 0.619 | 0.584
HCC-44 | 0.988 | 0.996 | 1.05 | 0.978 | 1.03 | 0.971 | 1.06 | 0.969 | 1.03 | 0.957 | 1.12 | 0.994 | 1.04 |  | 0.961 | 0.533
PC-3 [JPC-3] | 1.06 | 1.05 | 1.06 | 1.02 | 1.17 | 1.08 | 1.04 | 1.04 | 1.13 | 0.971 | 1.08 | 1.01 | 1.04 | 0.971 | 1.02 | 0.59
NCI-H1993 | 1.07 | 0.895 | 0.885 | 0.822 | 0.925 | 0.899 | 0.952 | 1.07 | 1.07 | 1.01 | 0.793 | 0.653 | 0.856 | 0.625 | 0.736 | 0.507
LOU-NH91 | 1.12 | 0.979 | 0.965 | 0.85 | 1.15 | 0.939 | 1.03 | 0.951 | 0.654 | 0.837 | 0.839 | 0.893 | 0.724 | 0.558 | 0.587 | 0.422
SW 900 | 0.96 | 0.765 | 0.924 | 0.741 | 1.03 | 0.826 | 0.975 | 0.736 | 1.03 | 0.622 | 0.67 | 0.733 | 0.647 | 0.701 | 0.405 | 0.254
LCLC-103H | 1.09 | 0.997 | 0.969 | 0.987 | 1.05 | 0.983 | 0.987 | 0.971 | 0.953 | 0.969 | 0.997 | 0.855 | 0.82 | 0.475 | 0.669 | 0.382
NCI-H1915 | 1.02 | 0.958 | 1.08 | 0.985 | 1 | 0.993 | 1.01 | 0.945 | 0.85 | 0.544 | 0.966 | 0.987 | 0.903 | 0.315 | 0.492 | 0.256
